Measurements from patent US9011839B2, “Anti-inflammatory and anti-vaginitis food composition and pharmaceutical composition containing Lactobacillus” (Glac Biotech Co., Ltd., priority 2010, dated 2015).

Assays:
[1] = tested on: vaginitis patients; settings: Barrons et al (2008); tampons, 4-8 weeks; cited from earlier work
[2] = tested on: human dendritic cells; assay: Inhibition of TNF-α secretion using an in vitro assay platform of dendritic cells; type: cell-based; settings: human dendritic cells co-cultured 48 hours with heated LAB (1:10); supernatant ELISA; Mean±SD
Experimental: A. Inhibition of TNF-α Secretion Using an In Vitro Assay Platform of Dendritic Cells.
(§1) The inhibition assay for Th17 immune response is implemented by measuring TNF-α secretion after co-culture with the above-mentioned lactic acid bacteria. The assay procedures are listed as followings: • 1. 200 mL human blood are obtained from healthy donors. • 2. 1:1 blood isolates (Ficoll-paque) and blood are centrifuged at 400 g in 18-20° C. for 30-40 min. • 3. Cells obtained from human PBMC (Peripheral Blood Mononuclear Cell) layer are washed with buffer solution 2-3 times and suspended with appropriate culture medium such as RPMI-1640. • 4. CD14^+ monocytes are purified from PBMC cells by using CD14^+ microbeads (MiniMACS system). • 5. Cells are differentiated into dendritic cells after incubating for 6-7 days by stimulating with IL-4 and GM-CSF and differentiated dendritic cells are then collected. • 6. The lactic acid bacteria strain is activated 3 days before co-culture and is then heated for thermal death at 100° C. for 30 min. • 7. The dendritic cells and the heated lactic acid bacteria strain (1:10) are co-cultured for 48 hours. • 8. The supernatant of the cell culture medium is collected and used for measuring TNF-α amount by using ELISA (enzyme-linked-immunosorbent serologic assay).
The statistic results (Mean±SD) of data are analyzed in Table 3. […]

[3] = tested on: human dendritic cells; assay: Stimulation of IL-10 secretion using an in vitro assay platform of dendritic cells; type: cell-based; settings: human dendritic cells co-cultured 48 hours with heated LAB (1:10); supernatant ELISA; Mean±SD
Experimental: B. Stimulation of IL-10 Secretion Using an In Vitro Assay Platform of Dendritic Cells.
as §1, with “In order to measure the increased amount of IL-10 secretion, human dendritic cells and” for “The inhibition assay for Th17 immune response is implemented by measuring TNF-α secretion after co-culture with”, “bacteria are co-cultured and the secretion of IL-10 is then measured so as to determine the promoting effect on inhibiting inflammatory cells from secreting cytokine.” for “bacteria.”, “donors;” for “donors.”, “The supernatant of the cell culture medium is collected and used for measuring TNF-α amount by using ELISA (enzyme-linked-immunosorbent serologic assay).” left out
The statistic results (Mean±SD) of data are analyzed in Table 4. […]

Molecule: CC(=O)O [acetic acid]
- vaginitis patients revealing improvement [1]: 38%

Molecule: Lipopolysaccharide [LPS]
- TNF-α Secretion [2]: 1521 ± 37 pg/mL

Molecule: Phytohemagglutinin [PHA]
- IL-10 Secretion [3]: 9145 ± 118 pg/mL
